Data reported in patent US20080318838A1, “PEPTIDES” (priority 1992, published 2008).
Ends that are not written are not given here.

Assay: biological activity of recombinantly produced (1-38)PTH
Conditions: recombinant product from Gen55-Asn-Gly-Pro-(1-38)PTH fusion
Experimental: From a non-optimized 20 litre fermentation a 78 g wet cell pellet with 50% expression of the fusion protein is harvested. Following lysis and centrifugation, 18 g of “90% pure” inclusion bodies are obtained. Following the acid stop step and centrifugation/filtration about 470 mg Gly-pro-PTH are detected. After HPLC on C4-Vydac, 355 mg of peptide are detected, decreasing to 321 mg after SP-Sepharose cation-exchange. Enzymatic removal of the Gly and Pro residues is carried out at 2 mg/ml.

Substance: hPTH-(1-38)-OH (SVSEIQLMHNLGKHLNSMERVEWLRKKLQDVHNFVALG-OH; UniProt P01270 32-69, looked up, fragment) [(1-38)PTH, natural human PTH fragment 1-38, produced recombinantly from a gp55 fusion protein in E. coli]
- biological activity: fully biologically active
